Measured values from patent publication US11805778B2, “Composition including an antimicrobial boosting agent including an amphocarboxylate and methods of increasing the antimicrobial effectiveness of a composition” (KIMBERLY-CLARK WORLDWIDE, INC., priority 2018, dated 2023).

Test system: B. cepacia (ATCC 25416)
Experiment: Minimum Effective Concentration (MEC) Test Method
Format: cell-based, Burkholderia cepacia
Conditions: for MEC of antimicrobial agent Sodium Benzoate / MEC of antimicrobial agent Caprylhydroxamic Acid (Zeastat) / MEC of antimicrobial agent Hydroxyacetophenone (SymSave H) / MEC of antimicrobial agent Lactic Acid (Purac FCC 88): B. cepacia, 24 hours; for performance as antimicrobial boosting agent: summary in words of the MEC testing of Table 1
Procedure: Initial testing was conducted to screen a variety of surfactants in researching for potential antimicrobial boosting agents. The initial testing followed the methodology as described in the Minimum Effective Concentration (“MEC”) Test Method described in the Test Methods section herein. To summarize, the MEC testing paired a variety of potential antimicrobial boosting agents with a variety of known antimicrobial agents to determine the MEC of the respective antimicrobial agent that must be used to provide an effective antimicrobial result, as described in further detail in the Test Methods section. The more positive the boosting characteristics of an antimicrobial boosting agent, then the lower the MEC that would be required for the paired antimicrobial agent. It is to be noted that the molarities listed in Table 1 are approximate values that were calculated based on the estimated activities of the ingredients and the molecular weights of the active ingredients. In instances where an exact activity was not available for an ingredient blend, the ingredient blend activity was estimated as the average of the upper and lower limits of the specification provided by the manufacturer of such blend. In instances where an exact molecular weight could not be calculated (for example, in compounds derived from a natural oil like coconut oil), the molecular weight of the active was estimated based on a weighted average of the molecular weights of the constituent species.
The Minimum Effective Concentration Test Method discussed herein began by adding B. cepacia (ATCC 25416) culture at a final concentration of approximately 5×10^6 CFU/mL to the composition to be challenged. The challenged composition was then allowed to incubate at room temperature for 24 hours. After 24 hours, a preservative neutralizing broth was added to the mixture and measurements were subsequently taken to determine the concentration of B. cepacia still remaining after exposure to the test composition.
The Minimum Effective Concentration was determined by completing the process described above on a series of compositions with the same concentration of antimicrobial boosting agent, but with different concentrations of antimicrobial agent. The Minimum Effective Concentration of antimicrobial agent for any given value of antimicrobial boosting agent was defined as the minimum concentration of antimicrobial agent required to reduce the concentration of B. cepacia to a level below the detection threshold for the test method, which was approximately 100 CFU/mL. In instances where multiple rounds of Minimum Effective Concentration testing were completed, the value reported is the mean of the Minimum Effective Concentration values generated by each individual series of tests.

[1] = paired with the labelled potential boosting agent at 5 mmol/L
[2] = no antimicrobial boosting agent

| Compound | MEC of antimicrobial agent Lactic Acid (Purac FCC 88) [1] | performance as antimicrobial boosting agent | also measured |
| --- | --- | --- | --- |
| Cocamidopropyl Betaine [Dehyton PK-45] |  |  | MEC of antimicrobial agent Sodium Benzoate [1]: >15 mmol/L |
| Disodium Cocoamphodipropionate [Mackam 2CSF-40CG] | <10 mmol/L | provided at least some antimicrobial boosting effect | MEC of antimicrobial agent Caprylhydroxamic Acid (Zeastat) [1]: 6 mmol/L; MEC of antimicrobial agent Hydroxyacetophenone (SymSave H) [1]: 10 mmol/L; MEC of antimicrobial agent Sodium Benzoate [1]: 2.5 mmol/L |
| Sodium Laurylglucosides Hydroxypropylsulfonate [Suga Nate 160] | >50 mmol/L |  |  |
| CCCCCCCCCCCC(=O)OC(C)C(=O)OC(C)C(=O)[O-].[Na+] (centres unmarked) [Dermosoft SLL, Sodium Lauroyl Lactylate] | 30 mmol/L |  |  |
| Disodium Capryloamphodiacetate [Sopalteric DSCYA-27] | 30 mmol/L | provided at least some antimicrobial boosting effect |  |
| sodium cocoamphodipropionate |  | provided at least some antimicrobial boosting effect |  |
| Cocamide DIPA [Cola Liquid DC] | Unstable | did not perform well as antimicrobial boosting agents | MEC of antimicrobial agent Hydroxyacetophenone (SymSave H) [1]: 20 mmol/L |
| CCCCCCCC[N+](C)(C)CC(=O)[O-] [Mackam BW-139, Octyl Betaine] | 40 mmol/L |  |  |
| Coco-Glucoside [Plantacare 818 UP] | >60 mmol/L | did not perform well as antimicrobial boosting agents |  |
| Sodium Cocoamphopropionate [Rewoteric AM KSF 40] | <10 mmol/L |  | MEC of antimicrobial agent Caprylhydroxamic Acid (Zeastat) [1]: 4 mmol/L; MEC of antimicrobial agent Hydroxyacetophenone (SymSave H) [1]: 10 mmol/L; MEC of antimicrobial agent Sodium Benzoate [1]: 1.8 mmol/L |
| Sodium Methyl Cocoyl Taurate [Hostapon CT Paste] |  |  | MEC of antimicrobial agent Sodium Benzoate [1]: 2.5 mmol/L |
| sodium cocoamphoacetate |  | provided at least some antimicrobial boosting effect |  |
| Disodium Cocoamphodiacetate [Mackam 2C-75] | 30 mmol/L | provided at least some antimicrobial boosting effect | MEC of antimicrobial agent Caprylhydroxamic Acid (Zeastat) [1]: 4 mmol/L; MEC of antimicrobial agent Hydroxyacetophenone (SymSave H) [1]: 10 mmol/L; MEC of antimicrobial agent Sodium Benzoate [1]: 2.5 mmol/L |
| PEG-80 Sorbitan Laurate [Alkamuls PSML-80/72LD] | 50 mmol/L |  |  |
| C[N+](C)(CCO)CC(O)C[N+](C)(C)CCO.[Cl-].[Cl-] [Cola Moist 200, Hydroxypropyl Bis-Hydroxyethyldimonium Chloride] | 50 mmol/L |  |  |
| Sodium Cocoamphoacetate [Mackam HPC-32L] | 40 mmol/L |  |  |
| CC(O)C(=O)O (centres unmarked) [Purac FCC 88, Lactic Acid] |  |  | MEC of antimicrobial agent Lactic Acid (Purac FCC 88) [2]: 60 mmol/L |
| Sodium Cocoyl Isethionate [Hostapon SCI 85 P] | 50 mmol/L | did not perform well as antimicrobial boosting agents |  |
| Disodium PEG-12 Dimethicone Sulfosuccinate [Mackanate Ultra Si] | 40 mmol/L |  |  |
| Caprylyl/Capryl Glucoside [Plantaren 810 UP] | 60 mmol/L |  |  |
| Sodium Cocoamphoacetate [ColaTeric 1C] | 30 mmol/L |  | MEC of antimicrobial agent Hydroxyacetophenone (SymSave H) [1]: 15 mmol/L |
| CCCCCCCC[N+](C)(C)[O-] [Techmine 280, Octyldimethylamine Oxide] | 40 mmol/L |  |  |
| CCCCCCCC(=O)NO [Zeastat, Caprylhydroxamic Acid] |  |  | MEC of antimicrobial agent Caprylhydroxamic Acid (Zeastat) [2]: 10 mmol/L |
| Sodium Lauroamphoacetate [Sopalteric SLA-32] | 20 mmol/L | provided at least some antimicrobial boosting effect |  |
| Laureth-3 Phosphate [Dermalcare MAP L-130] | 40 mmol/L |  |  |
| CCCCCCCCCCCCCCCC[N+](C)(C)CC(=O)[O-] [Mackam CET, Cetyl Betaine] | 40 mmol/L |  |  |
| Polysorbate 20 [Eumulgin SML-20] | 50 mmol/L | did not perform well as antimicrobial boosting agents | MEC of antimicrobial agent Caprylhydroxamic Acid (Zeastat) [1]: 10 mmol/L; MEC of antimicrobial agent Hydroxyacetophenone (SymSave H) [1]: >20 mmol/L; MEC of antimicrobial agent Sodium Benzoate [1]: 5 mmol/L |
| PEG-40 Hydrogenated Castor Oil [Tagat CH40] | >60 mmol/L | did not perform well as antimicrobial boosting agents | MEC of antimicrobial agent Caprylhydroxamic Acid (Zeastat) [1]: 10 mmol/L; MEC of antimicrobial agent Hydroxyacetophenone (SymSave H) [1]: >20 mmol/L |
| O=C([O-])c1ccccc1.[Na+] [Sodium Benzoate] |  |  | MEC of antimicrobial agent Sodium Benzoate [2]: 7.5 mmol/L |
| Lauryl Glucoside [Plantaren 1200 N UP] | >30 mmol/L |  | MEC of antimicrobial agent Sodium Benzoate [1]: 10 mmol/L |
